Tests used:
[1] = Pharmacokinetics of spinosad API capsules and spinosad tablets after oral administration to cats (Example 2); conditions: for mean Tmax / mean elimination half-life (t1/2) / mean normalized AUC0-∞ / mean normalized Cmax: cats, oral; for mean normalized AUC0-∞ / mean normalized Cmax: plasma, normalized to dose
Protocol: The plasma concentrations and resulting pharmacokinetics of spinosad tablets when administered orally to adult cats in the fed or fasted state can be evaluated. Twenty four cats (12 male and 12 female) can be dosed with approximately 80 mg/kg spinosad, as either API in gelatin capsules or as spinosad formulated chewable tablets. Serial blood samples can be collected through 672 hours (28 days) after dose administration. […] Samples can be immediately mixed by inversion several times and stored on ice until centrifuged. The plasma can be collected, split into two approximately equal aliquots and stored frozen at approximately −70° C. until shipped for analysis, and/or analyzed by a validated LC/MS/MS assay.

[2] = Tolerability of oral spinosad in cats (Example 1); assay type: in vivo, cat; conditions: single oral dose 35-50 mg/kg in gelatin capsule
[3] = tested on: adult cat flea (Ctenocephalides felis); assay: Dose determination: knockdown and residual effectiveness of spinosad (gelatin capsule) against adult fleas on experimentally infested cats (Example 1); assay type: in vivo; conditions: for Geometric Mean Counts of Adult C. felis / Geometric Mean Percent Reduction of Adult C. felis Compared to Untreated Control Group: fed
Description: The “knockdown” and “residual” effectiveness of spinosad can be evaluated following oral administration at four different single dosages, compared to a non-treated control group, against the adult cat flea (Ctenocephalides felis) on experimentally infested cats. A minimum effective oral dose in cats can be evaluated based on knockdown efficacy (i.e., on Day 1 following administration) and on residual efficacy (i.e., on Day 30 following administration) against the cat flea (Ctenocephalides felis).
Forty cats can be evaluated in a randomized complete block design with cat gender and pretreatment live flea counts used as blocking factors. Five treatment groups of four female and four male cats per group can be orally dosed on Test Day 0: Group (1) can be administered 0 mg/kg vehicle control (empty gelatin capsule); Group (2) can be administered spinosad in a gelatin capsule at a dose of 35 mg/kg body weight; Group (3) can be administered spinosad in a gelatin capsule at a dose of 40 mg/kg body weight; Group (4) can be administered spinosad in a gelatin capsule at a dose of 45 mg/kg body weight; and Group (5) can be administered spinosad in a gelatin capsule at a dose of 50 mg/kg body weight. All cats can consume canned cat food just prior to dosing to ensure they were in a fed state. Each cat can be infested with approximately 100 newly emerged, unfed adult fleas (C. felis), on Test Days −6, −1, 5, 12, 19, 28 and 35. Individual animal flea counts can be performed approximately 48-hours post-infestation using the laboratory's comb counting method on Test Days −4, 1, 7, 14, 21, 30 and 37. The Day −4 pre-treatment live flea counts can be used to allocate animals to the five treatment groups. The Day 1, 7, 14, 21, 30 and 37 flea counts can be used to evaluate the knockdown (Day 1) and residual flea efficacy in each of the treated groups compared to the vehicle (negative) control group.

[4] = Tolerability of flavored spinosad tablet in cats (Example 3); assay type: in vivo, cat; conditions: beef flavored tablet 51.47 to 76.06 mg/kg single oral dose
Description: (§1) In total, twenty-two (22) cats can be acclimatized for the study and from these, 17 can be selected based on pre-treatment weight and flea retention counts to be randomized into either a treated or control group. Nine cats can be assigned to the control group and eight cats can be assigned to the treatment group based on flea retention counts from Day −5. Cats in the treated group can be dosed on Day 0 with the intended final formulation, a beef flavored tablet containing spinosad at a dose rate of 50-75 mg/kg spinosad/body weight, while the cats in the control group can be dosed with a vehicle control tablet.
(§2) Seventeen cats were randomized based on pre-treatment flea infestation counts into either a treated or control group. Eight cats were dosed on Day 0 with a beef flavored tablet containing spinosad with an overall dose range of 51.47 to 76.06 mg/kg spinosad body weight. The other nine cats were dosed with a vehicle control tablet.

[5] = tested on: adult cat fleas (Ctenocephalides felis); assay: Dose confirmation: efficacy of beef flavored spinosad tablet against fleas on experimentally infested cats (Example 3); assay type: in vivo; conditions: beef flavored tablet 50-75 mg/kg single oral dose
Protocol: The treatment effect (insecticidal efficacy) of a beef flavored spinosad tablet when administered orally at a dose of 50-75 mg/kg against fleas (Ctenocephalides felis) on experimentally infested cats can be evaluated at one day post-administration and for the post-treatment prevention effect (residual efficacy) on Days 7, 14, 21 and 28.
as §1
Each cat can be infested with approximately 100 fleas on Days −1, 7, 14, 21 and 28 and then combed and the fleas counted on Days 1, 9, 16, 23 and 30 respectively.
as §2

[6] = tested on: adult cat fleas (Ctenocephalides felis); assay: Dose confirmation: efficacy of flavored spinosad tablet against fleas on experimentally infested cats (Example 4); assay type: in vivo; conditions: flavored tablet 50-75 mg/kg single oral dose, fed
Description: Confirmation of the efficacious dose of spinosad can be evaluated in cats experimentally infested with adult fleas (Ctenocephalides felis).
Twenty-four (24) cats that meet the inclusion/exclusion criteria and had the highest pre-treatment live flea (C. felis) counts can be included in a randomized complete block design with pre-treatment live flea counts used as a blocking factor. Each cat can be infested with approximately 100 unfed adult fleas (C. felis) on Test Day −9. Pre-treatment live flea counts can be conducted using the laboratory's comb counting method on Test Day −7. The Test Day −7 live flea counts can be used to allocate cats to one of two treatment groups. The two treatment groups of 12 cats per group can be orally dosed on Test Day 0. One group (5 male: 7 female) can receive vehicle control (0 mg/kg placebo tablets) and the second group (7 male: 5 female) can receive flavored spinosad tablets at a dose rate of 50-75 mg/kg body weight. Cats can consume canned cat food just prior to dosing and can be offered their daily maintenance diet after dosing. Each cat can be infested with approximately 100 unfed adult fleas (C. felis) on Test Days −1, 5, 12, 19, 28 and 35. Individual animal live flea counts can be performed on Test Days 1, 7, 14, 21, 30 and 37.

[7] = group 1: 80 mg/kg spinosad API in gel capsules, fed
[8] = group 2: 80 mg/kg spinosad tablets, fed
[9] = group 3: 80 mg/kg spinosad tablets, fasted
[10] = single oral dose 35 mg/kg in gelatin capsule, Day 7 post treatment
[11] = single oral dose 35 mg/kg in gelatin capsule, Day 14 post treatment
[12] = single oral dose 35 mg/kg in gelatin capsule, Day 21 post treatment
[13] = single oral dose 35 mg/kg in gelatin capsule, Day 37 post treatment
[14] = single oral dose 40 mg/kg in gelatin capsule, Day 7 post treatment
[15] = single oral dose 40 mg/kg in gelatin capsule, Day 14 post treatment
[16] = single oral dose 40 mg/kg in gelatin capsule, Day 21 post treatment
[17] = single oral dose 40 mg/kg in gelatin capsule, Day 30 post treatment
[18] = single oral dose 40 mg/kg in gelatin capsule, Day 37 post treatment
[19] = single oral dose 45 mg/kg in gelatin capsule, Day 7 post treatment
[20] = single oral dose 45 mg/kg in gelatin capsule, Day 14 post treatment
[21] = single oral dose 45 mg/kg in gelatin capsule, Day 21 post treatment
[22] = single oral dose 45 mg/kg in gelatin capsule, Day 37 post treatment
[23] = single oral dose 50 mg/kg in gelatin capsule, Day 7 post treatment
[24] = single oral dose 50 mg/kg in gelatin capsule, Day 14 post treatment
[25] = single oral dose 50 mg/kg in gelatin capsule, Day 21 post treatment
[26] = single oral dose 50 mg/kg in gelatin capsule, Day 30 post treatment
[27] = single oral dose 50 mg/kg in gelatin capsule, Day 37 post treatment

For spinosyn A, the “mean Tmax” value [1, 7] was 12 ± 5.2 h, the “mean elimination half-life (t1/2)” value [1, 7] was 13.6 ± 3.51 days and the “mean normalized AUC0-∞” value [1, 7] was 4,460±1410 hr*ng*kg/mg*mL. For the same substance, the “mean normalized Cmax” value [1, 7] was 60 ± 18 ng·kg/mg/mL, the “mean Tmax” value [1, 8] was 10 ± 3.0 h and the “mean elimination half-life (t1/2)” value [1, 8] was 11.5 ± 3.15 days. The “mean normalized AUC0-∞” value [1, 8] was 4,480±1180 hr*ng*kg/mg*mL, the “mean normalized Cmax” value [1, 8] was 46 ± 14 ng·kg/mg/mL and the “mean Tmax” value [1, 9] was 6.0 ± 3.7 h. For the same substance, the “mean elimination half-life (t1/2)” value [1, 9] was 8.04 ± 2.52 days, the “mean normalized AUC0-∞” value [1, 9] was 781 ± 406 ng·kg·h/mg/mL and the “mean normalized Cmax” value [1, 9] was 11 ± 6.6 ng·kg/mg/mL.

With spinosad the tolerability [2] was “well tolerated”, the “fleas at each comb count” value ([3]; 50 mg/kg oral, up through Day 21) was “zero” and the “post-treatment residual flea efficacy (geometric means)” value ([3]; all four spinosad groups (35, 40, 45, 50 mg/kg oral), up to and including Day 21 post-treatment) was greater than 90%. For the same substance, the “Geometric Mean Counts of Adult C. felis” value ([3]; single oral dose 35 mg/kg in gelatin capsule, Day 1 post treatment) was “(0.0)”, the “Geometric Mean Percent Reduction of Adult C. felis Compared to Untreated Control Group” value (“Geometric Mean Percent Reduction” below) ([3]; single oral dose 35 mg/kg in gelatin capsule, Day 1 post treatment, 35 mg/kg) was 100% and the “Geometric Mean Counts of Adult C. felis” value [3, 10] was “(0.0)”. The “Geometric Mean Percent Reduction” value [3, 10] was 100.00%, the “Geometric Mean Counts of Adult C. felis” value [3, 11] was “(0.2)” and the “Geometric Mean Percent Reduction” value [3, 11] was 99.74%. For the same substance, the “Geometric Mean Counts of Adult C. felis” value [3, 12] was “(5.4)”, the “Geometric Mean Percent Reduction” value [3, 12] was 92.94% and the “Geometric Mean Counts of Adult C. felis” value ([3]; single oral dose 35 mg/kg in gelatin capsule, Day 30 post treatment) was “(11.8)”. For the same substance, the “Geometric Mean Counts of Adult C. felis” value [3, 13] was “(32.4)”, the “Geometric Mean Percent Reduction” value [3, 13] was 52.20% and the “Geometric Mean Counts of Adult C. felis” value ([3]; single oral dose 40 mg/kg in gelatin capsule, Day 1 post treatment) was “(0.0)”. The “Geometric Mean Percent Reduction” value ([3]; single oral dose 40 mg/kg in gelatin capsule, Day 1 post treatment, 40 mg/kg) was 100%, the “Geometric Mean Counts of Adult C. felis” value [3, 14] was “(0.0)” and the “Geometric Mean Percent Reduction” value [3, 14] was 100.00%. The “Geometric Mean Counts of Adult C. felis” value [3, 15] was “(0.0)”, the “Geometric Mean Percent Reduction” value [3, 15] was 100.00% and the “Geometric Mean Counts of Adult C. felis” value [3, 16] was “(1.0)”. The “Geometric Mean Percent Reduction” value [3, 16] was 98.74%, the “Geometric Mean Counts of Adult C. felis” value [3, 17] was “(5.2)” and the “Geometric Mean Percent Reduction” value [3, 17] was 91.59%. The “Geometric Mean Counts of Adult C. felis” value [3, 18] was “(18.9)”, the “Geometric Mean Percent Reduction” value [3, 18] was 72.18% and the “Geometric Mean Counts of Adult C. felis” value ([3]; single oral dose 45 mg/kg in gelatin capsule, Day 1 post treatment) was “(0.0)”. The “Geometric Mean Percent Reduction” value ([3]; single oral dose 45 mg/kg in gelatin capsule, Day 1 post treatment, 45 mg/kg) was 100%, the “Geometric Mean Counts of Adult C. felis” value [3, 19] was “(0.4)” and the “Geometric Mean Percent Reduction” value [3, 19] was 99.50%. For the same substance, the “Geometric Mean Counts of Adult C. felis” value [3, 20] was “(2.0)”, the “Geometric Mean Percent Reduction” value [3, 20] was 97.22% and the “Geometric Mean Counts of Adult C. felis” value [3, 21] was “(4.6)”. For the same substance, the “Geometric Mean Percent Reduction” value [3, 21] was 93.98%, the “Geometric Mean Counts of Adult C. felis” value ([3]; single oral dose 45 mg/kg in gelatin capsule, Day 30 post treatment) was “(11.9)” and the “Geometric Mean Counts of Adult C. felis” value [3, 22] was “(35.1)”. For the same substance, the “Geometric Mean Percent Reduction” value [3, 22] was 48.29%, the “Geometric Mean Counts of Adult C. felis” value ([3]; single oral dose 50 mg/kg in gelatin capsule, Day 1 post treatment) was “(0.0)” and the “Geometric Mean Percent Reduction” value ([3]; single oral dose 50 mg/kg in gelatin capsule, Day 1 post treatment, 50 mg/kg) was 100%. For the same substance, the “Geometric Mean Counts of Adult C. felis” value [3, 23] was “(0.0)”, the “Geometric Mean Percent Reduction” value [3, 23] was 100.00% and the “Geometric Mean Counts of Adult C. felis” value [3, 24] was “(0.0)”. For the same substance, the “Geometric Mean Percent Reduction” value [3, 24] was 100.00%, the “Geometric Mean Counts of Adult C. felis” value [3, 25] was “(0.0)” and the “Geometric Mean Percent Reduction” value [3, 25] was 100.00%. For the same substance, the “Geometric Mean Counts of Adult C. felis” value [3, 26] was “(1.6)”, the “Geometric Mean Percent Reduction” value [3, 26] was 97.33% and the “Geometric Mean Counts of Adult C. felis” value [3, 27] was “(8.5)”. The “Geometric Mean Percent Reduction” value [3, 27] was 87.50%, the tolerability [4] was “adequately tolerated” and the “Geometric Mean Percent Reduction” value ([5]; Day 1 post treatment) was 100.0%. The “Geometric Mean Percent Reduction” value ([5]; Day 7 (day of infestation, counted Day 9)) was 100.0%, the “Geometric Mean Percent Reduction” value ([5]; Day 14 (day of infestation, counted Day 16)) was 99.69% and the “Geometric Mean Percent Reduction” value ([5]; Day 21 (day of infestation, counted Day 23)) was 99.45%. For the same substance, the “Geometric Mean Percent Reduction” value ([5]; Day 28 (day of infestation, counted Day 30)) was 98.05%, the “knockdown efficacy based on geometric means” value ([6]; Day 1) was 100% and the “residual efficacy based on geometric means” value (“residual efficacy based” below) ([6]; Day 7) was 99.78%. The “residual efficacy based” value ([6]; Day 14) was 99.57%, the “residual efficacy based” value ([6]; Day 21) was 95.83% and the “residual efficacy based” value ([6]; Day 30) was 90.77%. The “residual efficacy based” value ([6]; Day 37) was 90.36%, the “AUC0-∞ in fed animals relative to fasted animals” value ([1]; in vivo) was 5-10 times and the “Cmax in fed animals relative to fasted animals” value ([1]; in vivo) was 4-7 times.
